Experimental data as given in publication PMC3413742 (Biological psychiatry, 2012).

How the values were obtained:
hDAT Y335A = hDAT Y335A (Homo sapiens, UniProt Q01959, Y335A); test: [3H]DA uptake inhibition in COS-7 cells expressing hDAT Y335A mutant; assay type: cell-based
[1] = tested on: extracellular DA concentrations in the mouse NAc shell; test: Microdialysis of extracellular DA in the NAc shell; assay type: in vivo
NET [2] = biological target: T1, NET (Homo sapiens, UniProt P23975); test: [3H]nisoxetine binding at the NET
T1 sequence (P23975 whole entry): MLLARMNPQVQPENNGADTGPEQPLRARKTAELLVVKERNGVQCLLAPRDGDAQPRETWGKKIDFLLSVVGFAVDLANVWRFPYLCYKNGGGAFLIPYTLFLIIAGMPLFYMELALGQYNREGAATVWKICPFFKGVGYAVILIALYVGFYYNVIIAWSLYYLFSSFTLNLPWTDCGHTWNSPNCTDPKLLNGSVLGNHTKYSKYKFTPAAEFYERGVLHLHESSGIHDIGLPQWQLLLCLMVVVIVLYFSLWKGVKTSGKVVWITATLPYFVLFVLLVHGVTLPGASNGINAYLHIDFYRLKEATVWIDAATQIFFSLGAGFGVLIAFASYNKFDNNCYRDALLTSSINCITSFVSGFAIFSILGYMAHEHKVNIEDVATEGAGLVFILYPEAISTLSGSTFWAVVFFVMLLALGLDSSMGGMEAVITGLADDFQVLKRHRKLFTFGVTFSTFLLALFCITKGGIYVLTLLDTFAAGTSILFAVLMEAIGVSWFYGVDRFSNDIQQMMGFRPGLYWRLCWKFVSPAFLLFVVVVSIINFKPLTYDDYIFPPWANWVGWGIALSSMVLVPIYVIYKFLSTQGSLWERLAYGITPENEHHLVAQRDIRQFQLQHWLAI

NET [3] = biological target: T1, NET; test: [3H]DA uptake inhibition at the NET; assay type: cell-based
[4] = tested on: mice trained to discriminate cocaine (10 mg/kg) from saline; test: Cocaine discrimination procedure; assay type: in vivo, mouse; details: for substitution for the discriminative-stimulus effects of cocaine: pretreatment time 60 min
hDAT WT [5] = biological target: T2, hDAT WT (Homo sapiens, UniProt Q01959); test: [3H]DA uptake inhibition in COS-7 cells transiently expressing hDAT WT; assay type: cell-based
T2 sequence (Q01959 whole entry): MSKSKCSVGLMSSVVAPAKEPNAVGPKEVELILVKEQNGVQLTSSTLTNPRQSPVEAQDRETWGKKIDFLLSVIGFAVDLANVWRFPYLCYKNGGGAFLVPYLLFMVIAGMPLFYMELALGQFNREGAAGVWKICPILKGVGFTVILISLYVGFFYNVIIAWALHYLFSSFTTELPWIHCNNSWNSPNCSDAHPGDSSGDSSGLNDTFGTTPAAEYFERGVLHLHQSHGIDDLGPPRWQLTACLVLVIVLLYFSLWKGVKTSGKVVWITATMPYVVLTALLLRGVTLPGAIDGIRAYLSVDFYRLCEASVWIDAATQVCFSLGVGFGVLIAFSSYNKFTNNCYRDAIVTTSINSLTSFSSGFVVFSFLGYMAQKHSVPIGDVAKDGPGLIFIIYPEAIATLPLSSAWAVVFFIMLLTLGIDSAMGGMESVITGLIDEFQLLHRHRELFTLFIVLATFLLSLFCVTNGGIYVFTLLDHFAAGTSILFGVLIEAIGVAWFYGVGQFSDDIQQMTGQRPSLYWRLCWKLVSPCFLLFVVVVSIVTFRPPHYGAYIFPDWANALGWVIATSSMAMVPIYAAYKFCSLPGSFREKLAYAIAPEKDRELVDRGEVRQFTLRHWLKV

hDAT WT [6] = biological target: T2, hDAT WT; test: [3H]WIN 35,428 binding in COS-7 cells transiently expressing hDAT WT; details: R- versus S-modafinil
DAT = details: rat brain tissue; cited from earlier work

Chain of hDAT Y335A (Q01959 whole entry Y335A): as the sequence (Q01959 whole entry) above, with Y335A counted along it

CCCCN1[C@@H]2CC[C@H]1CC(OC(c1ccc(F)cc1)c1ccc(F)cc1)C2 (stereo partly shown) [JHW 007]
Y335A:WT IC50 ratio for [3H]DA uptake inhibition (hDAT Y335A): ~ 20 fold

COC(=O)[C@H]1[C@@H](OC(=O)c2ccccc2)C[C@@H]2CC[C@H]1N2C [cocaine]
extracellular DA levels, maximum as % of basal levels ([1]; 10 – 55 mg/kg): approximately 700 % of basal levels
time after injection of maximum DA ([1]; 10 – 55 mg/kg): ~ 30 min

NC(=O)C[S@+]([O-])C(c1ccccc1)c1ccccc1 [S-modafinil, S-(+)-modafinil]
IC50 (NET [2]; read-out: IC50, inhibition of [3H]nisoxetine binding at the NET, N=3, data not shown): > 100 µM
IC50 (NET [3]; read-out: IC50, inhibition of [3H]DA uptake at the NET, N=3, data not shown): > 100 µM
ED50 Value, substitution for cocaine (95% confidence limits) ([4]; cocaine 5 min, modafinils 60 min before testing): 89.0 (64.0 – 115) μmol/kg
substitution for the discriminative-stimulus effects of cocaine [4]: fully substituted for cocaine

NC(=O)C[S+]([O-])C(c1ccccc1)c1ccccc1 (racemic) [(±)-modafinil]
[3H]DA uptake inhibition potency lower than observed for DA (hDAT WT [5]): more than 7 fold
substitution for the discriminative-stimulus effects of cocaine [4]: fully substituted for cocaine

NC(=O)C[S@@+]([O-])C(c1ccccc1)c1ccccc1 [R-modafinil, R-(−)-modafinil]
extracellular DA levels, stimulation as % of DA basal levels ([1]; 30, 100, 300 mg/kg i.p.): approximately 300 % of DA basal levels
time after injection at which DA stimulation was reached ([1]; 30, 100, 300 mg/kg i.p.): 40 to 60 min
IC50 (NET [2]): > 100 µM
higher affinity for DAT than the S-enantiomer (hDAT WT [6]): ~ 3 fold
IC50 (NET [3]): > 100 µM
higher affinity for the DAT than the S-enantiomer (DAT): ~ 3 fold
substitution for the discriminative-stimulus effects of cocaine [4]: fully substituted for cocaine
